Data published in PMC4165007 (The Indian Journal of Medical Research, 2014).

Legend:
[1] = tested on: purified chymotrypsin; assay: Incubation with purified chymotrypsin; type: in vitro ADME; details: data not shown
[2] = oral; cited from earlier work
[3] = cited from earlier work
[4] = sublingual; cited from earlier work
[5] = cited from earlier work; remark: listed apart in the source
[6] = target: pepsin (Sus scrofa, UniProt P00791); assay: Digestion with simulated gastric fluid; type: in vitro ADME; details: SGF pepsin, gastric pH, data not shown
Sequence of pepsin (P00791 60-385): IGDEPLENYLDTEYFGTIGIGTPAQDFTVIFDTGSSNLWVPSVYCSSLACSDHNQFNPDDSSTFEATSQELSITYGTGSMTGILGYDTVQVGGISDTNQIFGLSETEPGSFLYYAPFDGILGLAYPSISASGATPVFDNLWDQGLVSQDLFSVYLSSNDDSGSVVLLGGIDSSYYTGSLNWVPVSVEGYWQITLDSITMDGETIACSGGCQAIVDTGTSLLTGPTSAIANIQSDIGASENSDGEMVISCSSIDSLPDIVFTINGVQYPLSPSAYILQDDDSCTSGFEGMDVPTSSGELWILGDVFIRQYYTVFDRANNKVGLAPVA

Row | effect of incubation with purified chymotrypsin [1] | OT hydrolysis on increasing the peptic digestion time to 12 h [6] | Molecule | bioavailability, given orally to pigs [2] | stability during digestion with human gastric juice [3] | bioavailability, given sublingually in humans [4] | half-life of injected OT in the plasma [5] [min]
1 | led to its hydrolysis | did not result in OT hydrolysis | CC[C@H](C)[C@@H]1NC(=O)[C@H](Cc2ccc(O)cc2)NC(=O)[C@@H](N)CSSC[C@@H](C(=O)N2CCC[C@H]2C(=O)N[C@@H](CC(C)C)C(=O)NCC(N)=O)NC(=O)[C@H](CC(N)=O)NC(=O)[C@H](CCC(N)=O)NC1=O [OT, Oxytocin] | very poor | stable | very poor | 5 to 7
2 |  |  | arginine-vasopressin |  | stable |  | 
